In PubChem BioAssay (NCI):
Values joined by “and” are separate entries in the source; they are usually repeats but may differ in a detail not shown here. Identical values can stand only once.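 Method: 48-hour compound exposure of cells in 96-well plates, five concentrations, linear interpolation of endpoints. Here, GI50 denotes the concentration required for 50% inhibition of growth. The concentration for full growth arrest is given as TGI.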

Key:
Experiment in all cases: DTP human tumour cell line panel, 48 h
[1] = system: DMS 114 small cell lung
[2] = system: DMS 273 small cell lung
[3] = system: LOX IMVI melanoma
[4] = system: NCI-H226 lung
[5] = system: NCI-H23 lung
[6] = system: NCI-H460 lung
[7] = system: SK-OV-3 ovarian
[8] = system: UACC-62 melanoma
[9] = system: HCT-116 colon
[10] = system: OVCAR-3 ovarian

N#Cc1cccc(C2SCc3nc4ccccc4n32)c1 (configuration not stated)
TGI [1]: > 100 µM
TGI [2]: > 100 µM
TGI [3]: > 100 µM
TGI [4]: 96.8 µM
TGI [5]: > 100 µM
TGI [6]: > 100 µM
TGI [7]: > 100 µM
TGI [8]: > 100 µM

COc1ncc(-c2ccc3nc(N)n(-c4ccccc4C(F)(F)F)c(=O)c3c2)cc1S(=O)(=O)Nc1ccc(F)cc1F
GI50 [9]: 1.7 µM
TGI [9]: 15.9 µM
GI50 [3]: 0.224 µM
TGI [3]: 0.761 µM
GI50 [4]: 8.68 µM
TGI [4]: > 100 µM
GI50 [5]: 0.693 µM
TGI [5]: 38.1 µM
GI50 [6]: 5.03 µM
TGI [6]: 36.6 µM
GI50 [10]: 0.369 µM
TGI [10]: 3.75 µM
GI50 [7]: 4.85 µM
TGI [7]: > 100 µM
GI50 [8]: 3.06 µM
TGI [8]: 9.59 µM

CC1(C)N=C(N)N=C(N)N1c1cccc(CC(=O)Nc2ccccc2)c1
GI50 [9]: 4.28 µM
TGI [9]: > 100 µM
GI50 [3]: 4.41 µM
TGI [3]: > 100 µM
GI50 [4]: > 100 µM
TGI [4]: > 100 µM
GI50 [5]: 14.8 µM
TGI [5]: > 100 µM
GI50 [6]: 3.63 µM
TGI [6]: > 100 µM
GI50 [10]: 32.1 µM
TGI [10]: > 100 µM
GI50 [7]: > 100 µM
TGI [7]: > 100 µM
GI50 [8]: 8.3 µM
TGI [8]: > 100 µM

CC(=O)O[C@@H]1[C@H]2O[C@H]2[C@H]2O[C@@]2(COC(=O)c2ccccc2)[C@H]1OC(C)=O
TGI [9]: > 100 µM
TGI [3]: > 100 µM
TGI [4]: > 100 µM
TGI [5]: > 100 µM
TGI [6]: > 100 µM
TGI [10]: > 100 µM
TGI [7]: > 100 µM
TGI [8]: > 100 µM

CC1SC(c2ccc(OCc3ccccc3)cc2)N(NC(=O)C(O)(c2ccccc2)c2ccccc2)C1=O (configuration not stated)
GI50 [9]: 1.76 µM
TGI [9]: 4.71 µM
GI50 [3]: 3.87 µM
TGI [3]: 14.6 µM
GI50 [4]: 3.79 µM
TGI [4]: 15.8 µM
GI50 [5]: 2.7 µM
TGI [5]: 13.8 µM
GI50 [6]: 3.53 µM
TGI [6]: 12.9 µM
GI50 [10]: 2.36 µM
TGI [10]: 6.1 µM
GI50 [7]: 9.49 µM
TGI [7]: 33.2 µM
GI50 [8]: 3.69 µM
TGI [8]: 16 µM

C=C(C)[C@@H]1CC[C@]2(C(=O)OC)CC[C@]3(C)[C@H](CC[C@@H]4[C@@]5(C)CC/C(=N\OCCC(=NCCC#N)NOCCC#N)C(C)(C)[C@@H]5CC[C@]43C)[C@@H]12
GI50 [9]: 2.89 µM
TGI [9]: > 50 µM
GI50 [3]: 4.32 µM
TGI [3]: 10.4 µM
GI50 [4]: 5.43 µM
TGI [4]: 15.5 µM
GI50 [5]: 7.59 µM
TGI [5]: > 50 µM
GI50 [6]: 11.1 µM
TGI [6]: > 50 µM
GI50 [10]: 5.17 µM
TGI [10]: 15.8 µM
GI50 [7]: 10.8 µM
TGI [7]: > 50 µM
GI50 [8]: 2.32 µM
TGI [8]: 12.6 µM

O=C(NC(=Nc1ccccc1)SCCSC(=Nc1ccccc1)NC(=O)c1ccccc1)c1ccccc1
TGI [1]: > 100 µM
TGI [2]: > 100 µM
TGI [9]: > 100 µM
TGI [3]: > 100 µM
TGI [4]: > 100 µM
TGI [5]: > 100 µM
TGI [6]: > 100 µM
TGI [10]: > 100 µM
TGI [8]: > 100 µM

Nc1c2ccccc2nc2ccccc12
GI50 [9]: 0.702 µM and 2.17 µM
TGI [9]: 8.31 µM and 10.5 µM
GI50 [3]: 1.77 µM and 1.69 µM
TGI [3]: 5.12 µM and 3.5 µM
GI50 [4]: 1.24 µM and 2.81 µM
TGI [4]: 3.21 µM and 8.24 µM
GI50 [5]: 1.8 µM and 3.18 µM
TGI [5]: 5.49 µM and 15.4 µM
GI50 [6]: 1.44 µM and 2.5 µM
TGI [6]: 5.17 µM and 6.88 µM
GI50 [10]: 2.2 µM and 2.91 µM
TGI [10]: 6.77 µM and 8.91 µM
GI50 [7]: 2.18 µM and 3.22 µM
TGI [7]: 9.21 µM and 22 µM
GI50 [8]: 1.51 µM and 2.42 µM
TGI [8]: 3.45 µM and 6.88 µM

O=C1C(=C2C(=O)c3ccccc3[N+]2=O)N([O-])c2ccccc21
TGI [1]: 33.9 µM
TGI [2]: 89.5 µM
TGI [3]: 29.8 µM
TGI [4]: 81.4 µM
TGI [5]: 77.7 µM
TGI [6]: 55.3 µM
TGI [10]: 39.7 µM
TGI [7]: > 100 µM

Cc1c(Cl)ccc2[s+]snc12
TGI [2]: > 100 µM
TGI [9]: 59 µM
TGI [3]: 49.9 µM
TGI [4]: > 100 µM
TGI [5]: > 100 µM
TGI [6]: > 100 µM
TGI [10]: > 100 µM
TGI [7]: > 100 µM
TGI [8]: 45.2 µM

FC(F)(F)c1ccc(-c2cnc(-c3nn[nH]n3)nc2NC2CCCCCC2)cc1
GI50 [9]: > 10 µM
TGI [9]: > 10 µM
GI50 [3]: > 10 µM
TGI [3]: > 10 µM
GI50 [4]: > 10 µM
TGI [4]: > 10 µM
GI50 [5]: > 10 µM
TGI [5]: > 10 µM
GI50 [6]: > 10 µM
TGI [6]: > 10 µM
GI50 [10]: > 10 µM
TGI [10]: > 10 µM
GI50 [7]: > 10 µM
TGI [7]: > 10 µM
GI50 [8]: > 10 µM
TGI [8]: > 10 µM

N#CSc1c[nH]c2cccc(/C=C/C(=O)/C=C(O)/C=C/c3cccc4[nH]cc(SC#N)c34)c12
GI50 [9]: 0.109 µM
TGI [9]: 0.421 µM
GI50 [3]: 0.148 µM
TGI [3]: 0.547 µM
GI50 [4]: 0.607 µM
TGI [4]: 1.34 µM
GI50 [5]: 0.426 µM
TGI [5]: 1.89 µM
GI50 [6]: 0.228 µM
TGI [6]: 0.899 µM
GI50 [10]: 0.225 µM
TGI [10]: 1.09 µM
GI50 [7]: 1.32 µM
TGI [7]: 5.23 µM
GI50 [8]: 0.4 µM
TGI [8]: 1.63 µM

CC(=O)Nc1ccc(S(=O)(=O)N2C(=O)CCC2C(=O)Nc2ccccc2)cc1 (configuration not stated)
GI50 [9]: 0.389 µM
TGI [9]: 20 µM
GI50 [3]: 0.0482 µM
TGI [3]: 13.2 µM
GI50 [4]: 3.16 µM
TGI [4]: 20.9 µM
GI50 [5]: 2.23 µM
TGI [5]: 18.6 µM
GI50 [6]: 0.359 µM
TGI [6]: 15.3 µM
GI50 [10]: 1.75 µM
TGI [10]: 11.8 µM
GI50 [7]: 2.87 µM
TGI [7]: 18.8 µM
GI50 [8]: 0.0523 µM
TGI [8]: 10.3 µM

COc1cc(F)c(F)c(F)c1C(=O)c1cnc(NC2CCN(S(C)(=O)=O)CC2)nc1N
GI50 [9]: 0.56 µM
TGI [9]: > 25 µM
GI50 [3]: 1.04 µM
TGI [3]: > 13 µM
GI50 [4]: 1.86 µM
TGI [4]: 15.7 µM
GI50 [5]: 1.24 µM
TGI [5]: 14.8 µM
GI50 [6]: 0.428 µM
TGI [6]: > 25 µM
GI50 [10]: 2.33 µM
TGI [10]: > 19 µM
GI50 [7]: 11.6 µM
TGI [7]: > 25 µM
GI50 [8]: 1.49 µM
TGI [8]: 7.98 µM

COc1ccc2c(c1)OCC1c3cc(OC)ccc3OC21 (configuration not stated)
GI50 [9]: 47.5 µM
TGI [9]: > 100 µM
GI50 [3]: 45.9 µM
TGI [3]: > 100 µM
GI50 [4]: 27.3 µM
TGI [4]: > 100 µM
GI50 [5]: 36.2 µM
TGI [5]: > 100 µM
GI50 [6]: 32.1 µM
TGI [6]: > 100 µM
GI50 [10]: 44.2 µM
TGI [10]: > 100 µM
GI50 [7]: > 100 µM
TGI [7]: > 100 µM
GI50 [8]: 51 µM
TGI [8]: > 100 µM
